The record followed here is the NIST ThermoML archive (doi:10.1016/j.jct.2014.04.021).

For this series the following is noted: for mass density: 101.33 kPa, Liquid, Vibrating tube method; for Normal melting temperature: Crystal, DTA.

Numbers after ± are expanded uncertainties.

By mass density is commonly meant the mass of a sample divided by its volume. Turning to `CCCCCC[N+]1(C)CCCCC1.O=S(=O)([N-]S(=O)(=O)C(F)(F)F)C(F)(F)F`, the mass density reads like this: (293 K) 1329.5 ± 1.1 kg/m3; (298.15 K) 1325.4 ± 1.1 kg/m3. For `CCCCn1cc[n+](C)c1.N#CC1=NC(C(F)(F)F)=NC1=C=[N-]`, where the note is “298.15 K”, the mass density was found to be 1199.65 ± 1.5 kg/m3. For the compound `C[n+]1ccn(CC#N)c1.N#Cc1nc(C(F)(F)F)[n-]c1C#N`, the Normal melting temperature was determined as 92.7 ± 0.4 °C. `CCCCCC[n+]1cccc2ccccc21.O=S(=O)([N-]S(=O)(=O)C(F)(F)F)C(F)(F)F` [1-hexylquinolinium bis(trifluoromethylsulfonyl)amide]: the Normal melting temperature was 45 ± 0.4 °C.

As for `OC[C@@H](O)[C@@H](O)[C@H](O)[C@@H](O)CO` [D-sorbitol], the Normal melting temperature was 98.6 ± 0.4 °C. `CCCCCC[n+]1ccc2ccccc2c1.O=S(=O)([N-]S(=O)(=O)C(F)(F)F)C(F)(F)F` [N-hexylisoquinolinium bis(trifluoromethylsulfonyl)imide]: the mass density (333.2 K) is reported as 1349.3 ± 1.8 kg/m3. Regarding `OC[C@@H](O)[C@H](O)[C@@H](O)CO` [xylitol], the Normal melting temperature amounted to 94.1 ± 0.4 °C.
